Data taken from patent US20230172897A1, “METHODS OF TREATING BREAST CANCERS WITH SELECTIVE ANDROGEN RECEPTOR MODULATORS AND ADDITIONAL THERAPEUTIC AGENTS” (VERU, INC., priority 2021, published 2023).

Columns and labels:
[1] = tested on: MDA-MB-231 breast cancer cells stably transfected with AR; assay: Proliferation (Coulter counter) of MDA-MB-231 cells stably transfected with AR; format: cell-based; settings: 6 days
Method: MDA-MB-231 cells stably transfected with AR using lentivirus were treated with the indicated ligands for 6 days and the number of cells counted using Coulter counter.

MDA-MB-231-AR cells = assay: Morphology of MDA-MB-231 cells stably transfected with AR; format: cell-based; settings: 3 days
Method: MDA-MB-231 cells were stably transfected with AR using lentivirus. […] Live cells were visualized using a light-microscope and photographed. The cells were imaged at the same magnification and under the same microscopic conditions.
MDA-MB-231 cells were stably transfected with AR using lentivirus and were treated with vehicle or AR agonists at the indicated concentrations. At the end of 3 days of incubation, the cells were imaged under a microscope (40×).

MCF7 palboR cells = assay: Proliferation of palbociclib resistant MCF-7 cells; format: cell-based
Source text: Data were presented as mean values±s.e.m. […] Data represented the mean±s.e.m. of four replicate cell culture wells per condition. […] P values are indicated by gray asterisks, where ****P<0.0001 for all highlighted comparisons.
Tissue samples from an ER-positive, PR-negative, and HER2-negative (ER^+, PR^−, HER2^−) patient that progressed on (i.e., was resistant to) palbociclib were implanted into animal (NSG mice) models and grown as a patient-derived xenograft (PDX). […] This human tumor model also had amplification of the cyclin D1 (CCND1^Amp) gene which has been implicated as a driver of therapeutic resistance to CDKi. […] This is also observed in other models tested in vitro including a palbociclib resistant MCF-7 (MCF7 palbo^R) line (FIG. 44B).

[2] = tested on: MDA-MB-231-AR triple negative breast cancer cells; assay: MDA-MB-231-AR xenograft in nude mice; format: in vivo; settings: for body weight / tumor weights: all doses
Method: MDA-MB-231-AR triple negative breast cancer cells (2 million cells/mouse; MDA-MB-231 cells stably transfected with AR using lentivirus) were mixed with matrigel (1:1) and injected subcutaneously into the flanks of intact female nude mice (n=5/group). When the tumors reached 150-200 mm^3, the animals were separated into two groups, one receiving vehicle and the other receiving 30 mg/kg Formula VIII orally. Tumor volume was measured thrice weekly and % tumor growth inhibition (TGI) was calculated. At the end of 35 days of treatment, the animals were sacrificed, tumors excised, weighed, and collected for various analyses. Blood was collected and serum separated for drug concentration measurement.

AR = target: T1, AR (Homo sapiens, UniProt P10275); assay: AR transactivation (GRE-LUC) in HEK-293 or MDA-MB-231 cells; format: cell-based; parameters: expressed in transfected cells; settings: cells transfected with AR
T1 sequence (P10275 1-920): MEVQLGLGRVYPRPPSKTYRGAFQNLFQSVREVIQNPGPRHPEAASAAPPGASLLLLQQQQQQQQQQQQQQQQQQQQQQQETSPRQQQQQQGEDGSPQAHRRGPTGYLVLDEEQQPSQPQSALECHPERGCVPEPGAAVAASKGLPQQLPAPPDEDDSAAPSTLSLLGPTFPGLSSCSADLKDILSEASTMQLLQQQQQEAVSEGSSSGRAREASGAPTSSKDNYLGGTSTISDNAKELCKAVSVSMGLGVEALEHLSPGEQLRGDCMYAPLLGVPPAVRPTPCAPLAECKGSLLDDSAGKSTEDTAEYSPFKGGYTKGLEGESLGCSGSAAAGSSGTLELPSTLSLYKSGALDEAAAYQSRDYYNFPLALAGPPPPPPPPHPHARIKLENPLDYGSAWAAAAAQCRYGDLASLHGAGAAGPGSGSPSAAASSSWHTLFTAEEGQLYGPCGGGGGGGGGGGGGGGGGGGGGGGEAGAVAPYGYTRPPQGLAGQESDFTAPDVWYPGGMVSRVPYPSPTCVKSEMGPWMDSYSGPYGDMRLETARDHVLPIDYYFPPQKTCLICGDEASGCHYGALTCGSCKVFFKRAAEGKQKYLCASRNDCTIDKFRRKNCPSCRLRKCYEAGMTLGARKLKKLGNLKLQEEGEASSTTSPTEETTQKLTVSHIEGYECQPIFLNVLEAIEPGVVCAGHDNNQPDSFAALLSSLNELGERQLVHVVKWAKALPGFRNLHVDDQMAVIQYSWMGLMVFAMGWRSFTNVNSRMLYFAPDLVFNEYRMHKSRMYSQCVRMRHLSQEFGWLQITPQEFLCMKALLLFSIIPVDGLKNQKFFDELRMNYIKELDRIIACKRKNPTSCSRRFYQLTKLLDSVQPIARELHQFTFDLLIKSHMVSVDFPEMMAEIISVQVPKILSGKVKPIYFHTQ
Method: Though AR transactivation assay was performed in HEK-293 cells, the ability of ligands to function as agonists or antagonists depends on cellular microenvironment. […] The cells were treated 24 h after transfection and luciferase assay performed 48 h after transfection.

ERα, ERβ, GR, or MR = assay: Cross-reactivity with other nuclear hormone receptors (summary); format: cell-based, Rat; settings: agonist and antagonist mode
Method: In order to determine whether SARM compounds of Formulae I-XIV as described hereinaffected other nuclear hormone receptor signaling, the ability of a compound represented by Formula VIII to stimulate (agonist) or inhibit (antagonist) ERα-, ERβ-, GR-, PR-, or MR-mediated transcriptional activation, was analyzed.
Rat GR, MR, PR, ER-α and ER-β were individually cloned into a pCR3.1 vector backbone. Sequencing was performed to verify the absence of any mutations. HEK-293 cells were plated at 90,000 cells per well of a 24 well plate in Dulbecco's Minimal Essential Media supplemented with 5% charcoal-stripped FBS. The cells were transfected using Lipofectamine (Invitrogen, Carlsbad, Calif.) with 0.25 μg GRE-LUC for GR, MR and PR and ERE-LUC for ER-α and ER-β, 0.5 ng CMV-LUC (renilla luciferase) and 12.5-25 ng of the respective expression vector for each receptor. […] Luciferase assays were performed 48 h after transfection. Transcriptional activation values are represented as firefly luciferase normalized to renilla luciferase.

purified AR-LBD protein = target: T2, purified AR-LBD protein (Homo sapiens, UniProt P10275); assay: In vitro competitive radioligand binding assay with [3H]MIB; settings: relative to DHT
T2 construct: purified AR-LBD protein

[3] = tested on: MCF-7 cells stably transfected with AR; assay: MCF-7-AR xenograft in ovariectomized, estradiol-supplemented nude mice (Formula VIII); format: in vivo; settings: 30 mg/kg per day
Method: Once tumors reached 100-200 mm^3, the animals were randomized and treated with vehicle or 30 mg/kg per day of Formula VIII. Tumor volumes and body weights were measured thrice weekly. At the end of 5 weeks of treatment, the animals were sacrificed, tumors weighed and stored for RNA and protein isolation and histology. *significance at P<0.05.
In addition, uterus weights were measured in these xenograft studies, and Western blot from MCF-7 tumor xenografts were probed for AR.

SMILES	proliferation of MDA-MB-231 cells stably transfected with AR [1]	morphology of MDA-MB-231-AR cells (more anchorage-dependent phenotype) (MDA-MB-231-AR cells)	activity on proliferation of MCF7 palboR cells (MCF7 palboR cells)	body weight [2]	tumor weights [2]	TGI ([2]; all doses tried: 5, 10, 30 mg per kg)	AR function (agonist/antagonist) in transactivation (AR)	receptor-mediated transactivation of ERα, ERβ, GR, or MR (ERα, ERβ, GR, or MR)	uterus weight ([2]; 30 mg/kg orally)	reduction of tumor weights ([2]; 30 mg/kg orally, 35 days)	toxicity / body weight ([2]; 30 mg/kg orally, 35 days)	tumor growth inhibition (TGI) ([2]; 30 mg/kg orally, 35 days)	TGI ([2]; all doses tried: 5, 10 mg per kg)	relative binding affinities (RBAs) for AR (purified AR-LBD protein)	uterus weight in estrogen supplemented animals [3]	inhibition of growth of MCF-7 breast cancer cell xenografts ([3]; 5 weeks)
C[C@](O)(COc1ccc(C#N)cc1)C(=O)Nc1ccc(C#N)c(C(F)(F)F)c1 [Formula IX, (S)—N-(4-Cyano-3-(trifluoromethyl)phenyl)-3-(4-cyanophenoxy)-2-hydroxy-2-methylpropanamide]	inhibited the proliferation	altered the morphology	modest activity	increase of body weight	reduced	~85%	agonists	do not stimulate or inhibit								
C[C@](O)(COc1ccc(C#N)cc1)C(=O)Nc1ccc(C#N)c(Cl)c1 [Formula VIII, (S)—N-(3-chloro-4-cyanophenyl)-3-(4-cyanophenoxy)-2-hydroxy-2-methylpropanamide]	inhibited the proliferation	altered the morphology		increase of body weight	reduced		agonists	do not stimulate or inhibit	increased	more than 50%	without any associated toxicity or changes in body weight	~75%	~85%	0.314	inhibited uterus weight	greater than 50%
